From patent US20240261236A1, “METHODS OF USING NMDA RECEPTOR ANTAGONISTS” (Seelos Therapeutics, Inc., priority 2021, published 2024)

Columns and labels:
[1] = system: adults with major depressive disorder (MDD) who are at imminent risk of suicide; assay: S-STS CMCM clinician judgment, risk of suicide at this time; format: in vivo, human; details: 90 mg IN+SOC; for S-STS CMCM score (range 0-9; risk of suicide at this time, FIGS. 20A-20B): 24 hours post-administration
Source text: The S-STS CMCM (version 01/01/19) is a clinician-rated outcome measure which assesses SI/B on a standard 22-item scale, as well as multiple patient and clinician-rated items. The first 16 items are rated on a Likert-type scale ranging from “not at all” (0 units) to “extremely” (4 units), where select scoring (i.e., 4 specific items are scored based on the highest score on 2 of those items) yields a total score ranging from 0 units to 52 units. The final 6 items are used only when the patient misses a visit and is unable to complete the scale; if that missed visit is due to attempted or completed suicide, the possible maximum score is 100. The CMCM also yields 5 different single-item global assessments: 1) subject-rated likelihood of a suicide attempt; 2) subject-rated treatment needed; 3) clinician global severity of suicidal impulses, thoughts, and behaviors; 4) clinician judgment of suicide risk at this time and level of management needed for suicidality; and 5) clinician judgment of subject's likelihood of making a suicide attempt or of dying by suicide in the next 7 days.
The secondary endpoints are the change from baseline at 24 hours, as well as at Day 16, in the following: • (1) S-STS total score • (2) MADRS Total at Day 16 (only) • (3) Clinical Global Impression (CGI) of Severity for SI/B (CGIS-SI/B) and Change in SI/B (CGIC-SI/B) • (4) Patient Global Impression (PGI) of Severity for SI/B (PGIS-SI/B) and Change in SI/B (PGIC-SI/B • (5) S-STS Clinician-Rated Global Severity of Suicidal Impulses, Thoughts, and Behaviors • (6) S-STS Clinician judgment of subject's risk of a suicide attempt or death by suicide at this time • (7) S-STS Clinician judgment of subject's likelihood (risk) of making a suicide attempt or of dying by suicide in the next 7 days • (8) S-STS Subject-rated global severity of suicidal impulses, thoughts, and behavior • (9) S-STS Subject-rated treatment needed score • (10) MADRS item 10 response rate (response ≤3 units) • (11) MADRS Total response (total score ≥50% reduction from baseline) • (12) MADRS Total remission (total score ≤12 units)

[2] = system: adults with major depressive disorder (MDD) who are at imminent risk of suicide; assay: Treatment-emergent adverse events, Phase 2 Part 1

Structure (SMILES): CNC1(c2ccccc2Cl)CCCCC1=O (racemic) [intranasal racemic ketamine, 1:1 mixture of the two enantiomers of ketamine: (R)-2-(2-chlorophenyl)-2-(methylamino)cyclohexanone and (S)-2-(2-chlorophenyl)-2-(methylamino)cyclohexanone]
- S-STS CMCM score (range 0-9; risk of suicide at this time, FIGS. 20A-20B) ([1]; Subject 1, baseline 7 units): 3 units
- S-STS CMCM score (range 0-9; risk of suicide at this time) ([1]; Subject 1, Day 9): 2 units
- S-STS CMCM score (range 0-9; risk of suicide at this time, FIGS. 20A-20B) ([1]; Subject 2, from 7 units): 3 units
- S-STS CMCM score (range 0-9; risk of suicide at this time) ([1]; Subject 2, Day 9): zero
- S-STS CMCM score (range 0-9; risk of suicide at this time) ([1]; Subjects 1 and 2, Day 8): 2 units
- serious adverse events ([2]; 90 mg IN+SOC, Part 1): no serious adverse events
- severity of adverse events ([2]; 90 mg IN+SOC, Part 1): mild or moderate
- subjects who experienced a treatment-emergent adverse event (TEAE) ([2]; 17 subjects): 47%
- tolerability ([2]; Part 1): well tolerated
- vital sign or blood pressure-related AEs ([2]; Part 1): no vital sign or blood pressure-related AEs were reported
- TEAE feeling abnormal ([2]; n=2): 11.8%
- TEAE nausea ([2]; n=2): 11.8%
- TEAE sedation ([2]; n=2): 11.8%
- TEAE dizziness ([2]; n=3): 17.6%
- TEAE headache ([2]; n=4): 23.5%
